Assay results: patent publication US8513239B2, “Chiral cis-imidazolines” (Hoffmann-La Roche Inc., priority 2007, dated 2013)

These molecules were tested against interaction between p53 and MDM2 proteins (Homo sapiens, UniProt Q00987) (assay: HTRF assay of inhibition of p53-MDM2 interaction (GST-MDM2 binding to biotinylated p53 peptide)). Settings: recombinant GST-tagged MDM2, biotinylated p53 peptide, 0.2% BSA.
Experimental: The ability of the compounds to inhibit the interaction between p53 and MDM2 proteins was measured by an HTRF (homogeneous time-resolved fluorescence) assay in which recombinant GST-tagged MDM2 binds to a peptide that resembles the MDM2-interacting region of p53 (Lane et al.). Binding of GST-MDM2 protein and p53-peptide (biotinylated on its N-terminal end) is registered by the FRET (fluorescence resonance energy transfer) between Europium (Eu)-labeled anti-GST antibody and streptavidin-conjugated Allophycocyanin (APC).
Test is performed in black flat-bottom 384-well plates (Costar) in a total volume of […] containing:90 nM biotinylate peptide, 160 ng/ml GST-MDM2, 20 nM streptavidin-APC (PerkinElmerWallac), 2 nM Eu-labeled anti-GST-antibody (PerkinElmerWallac), 0.2% bovine serum albumin (BSA), 1 mM dithiothreitol (DTT) and 20 mM […] (TBS) buffer as follows: Add 10 uL of GST-MDM2 (640 ng/ml working solution) in reaction buffer to each well. Add 10 uL diluted compounds (1:5 dilution in reaction buffer) to each well, mix by shaking. Add 20 uL biotinylated p53 peptide (180 nM working solution) in reaction buffer to each well and mix on shaker. Incubate at 37° C. for 1 h. Add 20 uL streptavidin-APC and Eu-anti-GST antibody mixture (6 nM Eu-anti-GST and 60 nM streptavidin-APC working solution) in TBS buffer with 0.2% BSA, shake at room temperature for 30 minutes and read using a TRF-capable plate reader at 665 and 615 nm (Victor 5, Perkin ElmerWallac). If not specified, the reagents were purchased from Sigma Chemical Co.

interaction between p53 and MDM2 proteins, sequence (Q00987 whole entry): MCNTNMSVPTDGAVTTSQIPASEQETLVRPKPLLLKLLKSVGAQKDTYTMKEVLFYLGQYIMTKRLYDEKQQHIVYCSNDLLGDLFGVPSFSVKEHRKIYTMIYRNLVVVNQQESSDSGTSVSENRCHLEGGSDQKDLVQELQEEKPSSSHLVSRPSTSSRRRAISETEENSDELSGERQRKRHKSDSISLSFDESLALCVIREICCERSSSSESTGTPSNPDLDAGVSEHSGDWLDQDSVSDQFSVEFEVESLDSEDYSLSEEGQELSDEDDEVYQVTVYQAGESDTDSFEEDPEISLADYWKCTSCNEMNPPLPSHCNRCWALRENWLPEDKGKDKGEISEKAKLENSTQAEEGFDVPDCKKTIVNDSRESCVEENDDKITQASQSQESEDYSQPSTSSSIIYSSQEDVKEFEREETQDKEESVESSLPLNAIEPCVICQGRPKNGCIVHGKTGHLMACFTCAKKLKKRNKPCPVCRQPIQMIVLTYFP

| IC50 [nM] | Compound |
| --- | --- |
| 252 | CCOc1nc(C(C)(C)C)ncc1C1=N[C@@](C)(c2ccc(Cl)cc2)[C@@](C)(c2ccc(Cl)cc2)N1C(=O)N1CCC(N2CCCC2)CC1 (racemic) [Example 29, [2-(2-tert-Butyl-4-ethoxy-pyrimidin-5-yl)-4,5-bis-(4-chloro-phenyl)-4,5-dimethyl-4,5-dihydro-imidazol-1-yl]-(4-pyrrolidin-1-yl-piperidin-1-yl)-methanone] |
| 77 | CCOc1nc(C(C)(C)C)ncc1C1=N[C@@](C)(c2ccc(Cl)cc2)[C@@](C)(c2ccc(Cl)cc2)N1C(=O)N1CCN(CC(=O)N2CCOCC2)CC1 (racemic) [Example 40, Rac-2-{4-[(4S*,5R*)-2-(2-tert-Butyl-4-ethoxy-pyrimidin-5-yl)-4,5-bis-(4-chloro-phenyl)-4,5-dimethyl-4,5-dihydro-imidazole-1-carbonyl]-piperazin-1-yl}-1-morpholin-4-yl-ethanone] |
| 31 | CCOc1nc(C(C)(C)C)ncc1C1=N[C@@](C)(c2ccc(Cl)cc2)[C@@](C)(c2ccc(Cl)cc2)N1C(=O)N1CCN(CCOCCO)CC1 [Example 22, [(4S,5R)-2-(2-tert-Butyl-4-ethoxy-pyrimidin-5-yl)-4,5-bis-(4-chloro-phenyl)-4,5-dimethyl-4,5-dihydro-imidazol-1-yl]-{4-[2-(2-hydroxy-ethoxy)-ethyl]-piperazin-1-yl}-methanone] |
| 46 | CCOc1nc(C(C)(C)C)ncc1C1=N[C@@](C)(c2ccc(Cl)cc2)[C@@](C)(c2ccc(Cl)cc2)N1C(=O)N1CCN(C2CCS(=O)(=O)CC2)CC1 [Example 4, [(4S,5R)-2-(2-tert-Butyl-4-ethoxy-pyrimidin-5-yl)-4,5-bis-(4-chloro-phenyl)-4,5-dimethyl-4,5-dihydro-imidazol-1-yl]-[4-(1,1-dioxo-hexahydro-thiopyran-4-yl)-piperazin-1-yl]-methanone] |
| 178 | CCOc1nc(C(C)(C)C)ccc1C1=N[C@@](C)(c2ccc(Cl)cc2)[C@@](C)(c2ccc(Cl)cc2)N1C(=O)N1CCN(CCCS(C)(=O)=O)CC1 (racemic) [Example 9, Rac-[(4S*,5R*)-2-(6-tert-Butyl-2-ethoxy-pyridin-3-yl)-4,5-bis-(4-chloro-phenyl)-4,5-dimethyl-4,5-dihydro-imidazol-1-yl]-[4-(3-methanesulfonyl-propyl)-piperazin-1-yl]-methanone] |
